# Experimental data from BindingDB's records for patent US20240352053 (Betta Pharmaceuticals, 2024).
# Tests used:
# Experiment in all cases: Kinase Inhibition Assay
# [1] = target: Insulin-like growth factor 1 receptor (Homo sapiens, UniProt P08069)
# Protocol: (§1) Mobility shift assays were performed to determine the compound's inhibitory activity against EGFR delta19del/T790M/C797S, EGFR WT, and IGF1R kinases. The enzyme reaction scheme is as follows: 1. Prepare 1*kinase buffer as follows. Final 1* Kinase buffer concentration HEPES PH 7.5 (mM) 50 Brij-35 0.0150% DTT (mM) 2 Mgcl2, Mncl2 (mM) 10 2. Preparation of compound concentration gradient: The starting concentration of the test compound is 3000 nM or 100 nM, dilute it in the 384-source plate to a 100% DMSO solution of 100 times the final concentration, and use precision to dilute the compound 3 times to 10 concentrations. Use the Dispenser Echo 550 to transfer 250 nL of 100x the final concentration of compound to the destination plate OptiPlate-384F. 3. Prepare a kinase solution with 2.5 times the final concentration using 1x Kinase buffer. 4. Add 10 uL of 2.5 times the final concentration of kinase solution to the compound wells and positive control wells respectively; add 10 uL of 1x Kinase buffer to the negative control wells. 5. Centrifuge at 1000 rpm for 30 seconds, shake and mix the reaction plate and incubate at room temperature for 10 minutes. 6. Use 1x Kinase buffer to prepare a mixed solution of ATP and Kinase substrate at 5/3 times the final concentration. 7. Add 15 uL of a mixed solution of ATP and substrate at 5/3 times the final concentration to start the reaction. 8. Centrifuge the 384-well plate at 1000 rpm for 30 seconds, mix well by shaking, and incubate at room temperature for the corresponding time. 9. Add 30 uL of stop detection solution to stop the kinase reaction, centrifuge at 1000 rpm for 30 seconds, and shake to mix. 10. Use Caliper EZ Reader to read conversion rates. 11. Calculation formula
# [2] = target: Epidermal growth factor receptor (Homo sapiens, UniProt P00533)
# Protocol: as §1
# [3] = target: T1, Epidermal growth factor receptor [1-18,20-1210,T790M,C797S] (Human, UniProt P00533, T790M/C797S)
# T1 construct: 1-18,20-1210
# Protocol: as §1
# Epidermal growth factor receptor, sequence (P00533 whole entry): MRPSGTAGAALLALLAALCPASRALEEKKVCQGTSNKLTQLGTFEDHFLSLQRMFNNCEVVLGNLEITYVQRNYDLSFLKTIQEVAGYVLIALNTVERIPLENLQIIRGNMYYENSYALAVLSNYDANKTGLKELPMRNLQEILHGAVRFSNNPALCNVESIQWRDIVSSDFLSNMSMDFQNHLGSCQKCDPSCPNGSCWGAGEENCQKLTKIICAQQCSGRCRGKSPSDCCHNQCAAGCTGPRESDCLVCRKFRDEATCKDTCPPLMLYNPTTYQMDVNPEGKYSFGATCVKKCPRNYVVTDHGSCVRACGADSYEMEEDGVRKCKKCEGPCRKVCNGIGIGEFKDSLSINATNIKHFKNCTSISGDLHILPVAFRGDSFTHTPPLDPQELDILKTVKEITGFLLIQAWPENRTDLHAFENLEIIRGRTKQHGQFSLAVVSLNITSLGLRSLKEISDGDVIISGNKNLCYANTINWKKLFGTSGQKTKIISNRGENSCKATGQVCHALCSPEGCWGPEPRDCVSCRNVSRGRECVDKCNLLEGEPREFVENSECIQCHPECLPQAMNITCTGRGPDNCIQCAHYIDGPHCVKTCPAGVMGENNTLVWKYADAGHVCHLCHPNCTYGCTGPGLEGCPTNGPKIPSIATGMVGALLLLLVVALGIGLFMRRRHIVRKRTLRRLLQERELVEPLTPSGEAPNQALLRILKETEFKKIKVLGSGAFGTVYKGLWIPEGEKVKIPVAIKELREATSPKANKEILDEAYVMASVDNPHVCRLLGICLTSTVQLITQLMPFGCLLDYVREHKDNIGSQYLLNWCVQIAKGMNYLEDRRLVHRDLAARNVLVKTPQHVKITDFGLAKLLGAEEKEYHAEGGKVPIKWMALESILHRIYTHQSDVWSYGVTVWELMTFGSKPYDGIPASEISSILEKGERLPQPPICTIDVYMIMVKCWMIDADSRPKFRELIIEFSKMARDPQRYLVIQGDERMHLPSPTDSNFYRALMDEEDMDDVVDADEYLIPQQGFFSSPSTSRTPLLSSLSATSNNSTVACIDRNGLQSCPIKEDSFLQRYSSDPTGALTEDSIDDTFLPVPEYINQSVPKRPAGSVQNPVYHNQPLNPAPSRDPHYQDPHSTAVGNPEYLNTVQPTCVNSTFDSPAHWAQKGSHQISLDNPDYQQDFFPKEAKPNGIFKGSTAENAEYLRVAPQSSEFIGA
# Insulin-like growth factor 1 receptor, sequence (P08069 31-736 limits assumed): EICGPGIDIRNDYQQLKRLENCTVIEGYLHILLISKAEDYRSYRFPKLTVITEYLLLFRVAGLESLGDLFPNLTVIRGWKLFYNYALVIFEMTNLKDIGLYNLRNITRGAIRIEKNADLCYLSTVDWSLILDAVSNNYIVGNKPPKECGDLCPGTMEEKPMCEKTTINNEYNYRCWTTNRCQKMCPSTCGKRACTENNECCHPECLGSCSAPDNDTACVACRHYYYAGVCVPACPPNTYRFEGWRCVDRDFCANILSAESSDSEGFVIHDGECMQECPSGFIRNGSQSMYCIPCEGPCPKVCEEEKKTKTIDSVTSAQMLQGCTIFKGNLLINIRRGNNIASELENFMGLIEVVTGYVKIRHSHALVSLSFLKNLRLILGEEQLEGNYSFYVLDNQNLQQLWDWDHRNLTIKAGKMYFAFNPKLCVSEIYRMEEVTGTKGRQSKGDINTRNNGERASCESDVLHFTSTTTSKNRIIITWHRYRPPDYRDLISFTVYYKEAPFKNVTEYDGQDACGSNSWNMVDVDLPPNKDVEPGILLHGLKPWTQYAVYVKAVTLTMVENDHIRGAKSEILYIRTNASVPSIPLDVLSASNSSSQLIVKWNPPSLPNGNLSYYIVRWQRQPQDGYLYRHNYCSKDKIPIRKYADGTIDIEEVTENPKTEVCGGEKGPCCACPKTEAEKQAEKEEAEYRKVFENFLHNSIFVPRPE
# Insulin-like growth factor 1 receptor, sequence (P08069 741-1367 limits assumed): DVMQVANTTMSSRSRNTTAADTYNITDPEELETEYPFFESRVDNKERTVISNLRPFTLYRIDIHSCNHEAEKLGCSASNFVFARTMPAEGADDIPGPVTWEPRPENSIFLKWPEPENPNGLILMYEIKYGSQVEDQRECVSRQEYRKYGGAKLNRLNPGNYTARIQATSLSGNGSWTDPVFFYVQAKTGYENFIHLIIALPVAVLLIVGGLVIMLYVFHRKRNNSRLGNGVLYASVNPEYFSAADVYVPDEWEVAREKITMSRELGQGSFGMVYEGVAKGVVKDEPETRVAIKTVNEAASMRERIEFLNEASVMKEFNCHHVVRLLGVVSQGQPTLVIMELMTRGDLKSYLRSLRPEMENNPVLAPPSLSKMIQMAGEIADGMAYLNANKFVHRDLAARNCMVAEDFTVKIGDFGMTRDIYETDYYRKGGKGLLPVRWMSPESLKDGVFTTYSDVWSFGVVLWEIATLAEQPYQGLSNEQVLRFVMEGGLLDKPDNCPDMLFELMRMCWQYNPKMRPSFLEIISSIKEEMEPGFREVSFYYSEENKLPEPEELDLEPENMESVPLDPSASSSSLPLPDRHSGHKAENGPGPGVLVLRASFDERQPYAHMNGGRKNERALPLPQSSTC
IC50 [1],IC50 [2],IC50 [3],SMILES
9.5 nM,5.1 nM,0.2 nM,"CCc1cc(Nc2ncc(Br)c(Nc3ccc4ncccc4c3P(C)(C)=O)n2)c(OC)cc1N1CCC(N2CCN(C)CC2)CC1 [US20240352053, Compound Control Example 1]"
–,–,0.3 nM,"COc1cc(N2CCC(N3CCN(C)CC3)CC2)c(C)cc1Nc1ncc(Br)c(Nc2ccc3nc(C4CC4)ccc3c2P(C)(C)=O)n1 [US20240352053, Compound Formula I]"
